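The compound was tested at five concentrations on cells cultured in 96-well plates, with a 48-hour exposure period. GI50 marks 50% less growth. At the TGI there is no net growth.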
Key:
Assay in all cases: inhibition of tumour cell growth, NCI panel, 48 h
NCI-H226 lung = tested on: NCI-H226 lung
EKVX NSCLC = tested on: EKVX NSCLC
NCI-H23 lung = tested on: NCI-H23 lung
UACC-62 melanoma = tested on: UACC-62 melanoma
NCI/ADR-RES ovarian = tested on: NCI/ADR-RES ovarian
SK-MEL-2 melanoma = tested on: SK-MEL-2 melanoma
SNB-75 CNS = tested on: SNB-75 CNS
HL-60(TB) leukemia = tested on: HL-60(TB) leukemia
LOX IMVI melanoma = tested on: LOX IMVI melanoma
SK-MEL-28 melanoma = tested on: SK-MEL-28 melanoma

For `C=CCOCn1cnc2c(=O)[nH]c(N)nc21`, the TGI (NCI-H226 lung) was greater than 100 µM, the TGI (EKVX NSCLC) was greater than 100 µM and the TGI (NCI-H23 lung) was greater than 100 µM. For the same compound, the TGI (UACC-62 melanoma) was greater than 100 µM, the TGI (NCI/ADR-RES ovarian) was greater than 100 µM and the TGI (SK-MEL-2 melanoma) was greater than 100 µM. For the same compound, the TGI (SNB-75 CNS) was greater than 100 µM, the TGI (HL-60(TB) leukemia) was greater than 100 µM and the TGI (LOX IMVI melanoma) was greater than 100 µM. For the same compound, the TGI (SK-MEL-28 melanoma) was greater than 100 µM.

In the case of `C#CCn1c(=O)ccn(/C(=C/C(=O)OCC)C(=O)OCC)c1=O`, the TGI (NCI-H226 lung) is reported as 39.7 µM, the TGI (EKVX NSCLC) is reported as 20.3 µM and the TGI (NCI-H23 lung) is reported as 25.1 µM. The TGI (UACC-62 melanoma) was 27.8 µM, the TGI (NCI/ADR-RES ovarian) was 13.8 µM and the TGI (SK-MEL-2 melanoma) was 30.2 µM. For the same compound, the TGI (SNB-75 CNS) was 46.5 µM, the TGI (HL-60(TB) leukemia) was greater than 52.9 µM and the TGI (LOX IMVI melanoma) was 40.3 µM. For the same compound, the TGI (SK-MEL-28 melanoma) was 21.6 µM.

`O=CC1OC(=O)c2cc(O)c(O)c(O)c2-c2c(cc(O)c(O)c2O)C(=O)OC1C1OC(=O)c2cc(O)c(O)c(O)c2-c2c(O)c(O)c3oc(=O)c4c(c(O)c(O)c5oc(=O)c2c3c54)-c2c(cc(O)c(O)c2O)C(=O)OCC1O` (stereo not given) gave a TGI (NCI-H226 lung) greater than 100 µM, a TGI (EKVX NSCLC) greater than 100 µM and a TGI (NCI-H23 lung) greater than 100 µM. For the same compound, the TGI (UACC-62 melanoma) was greater than 100 µM, the TGI (NCI/ADR-RES ovarian) was greater than 100 µM and the TGI (SK-MEL-2 melanoma) was greater than 100 µM. It also gave a TGI (SNB-75 CNS) of 93.8 µM, a TGI (HL-60(TB) leukemia) greater than 100 µM and a TGI (LOX IMVI melanoma) of 29.2 µM. The TGI (SK-MEL-28 melanoma) was greater than 100 µM.

`CC/C=C\C=C/C(=O)N/C=C/CCC` gave a TGI (NCI-H226 lung) greater than 100 µM, a TGI (EKVX NSCLC) greater than 100 µM and a TGI (NCI-H23 lung) greater than 100 µM. For the same compound, the TGI (UACC-62 melanoma) was greater than 100 µM, the TGI (NCI/ADR-RES ovarian) was greater than 100 µM and the TGI (SK-MEL-2 melanoma) was greater than 100 µM. The TGI (SNB-75 CNS) was greater than 100 µM, the TGI (HL-60(TB) leukemia) was greater than 100 µM and the TGI (LOX IMVI melanoma) was greater than 100 µM. For the same compound, the TGI (SK-MEL-28 melanoma) was greater than 100 µM.

In the case of `Cc1ccc(S(=O)(=O)Nn2c(S)c(C#N)c(-c3ccc(Cl)cc3)c(C#N)c2=O)cc1`, the TGI (NCI-H226 lung) is reported as 66.5 µM, the TGI (EKVX NSCLC) is reported as greater than 100 µM and the TGI (NCI-H23 lung) is reported as greater than 100 µM. It also gave a TGI (UACC-62 melanoma) greater than 100 µM, a TGI (NCI/ADR-RES ovarian) of 71.5 µM and a TGI (SK-MEL-2 melanoma) greater than 100 µM. For the same compound, the TGI (SNB-75 CNS) was greater than 100 µM, the TGI (HL-60(TB) leukemia) was 65.8 µM and the TGI (LOX IMVI melanoma) was greater than 100 µM. It also gave a TGI (SK-MEL-28 melanoma) greater than 100 µM.

`CC(C)C(=O)/C=C/c1c(Cl)cccc1Cl` showed a TGI (NCI-H226 lung) of 8.01 µM, a TGI (EKVX NSCLC) of 26 µM and a TGI (NCI-H23 lung) of 7.24 µM. For the same compound, the TGI (UACC-62 melanoma) was 19.1 µM, the TGI (NCI/ADR-RES ovarian) was 9.23 µM and the TGI (SK-MEL-2 melanoma) was 7.99 µM. The TGI (SNB-75 CNS) was 8.38 µM, the TGI (HL-60(TB) leukemia) was greater than 100 µM and the TGI (LOX IMVI melanoma) was 7.32 µM. The TGI (SK-MEL-28 melanoma) was 20.5 µM.

For `CON[N+]([O-])=NC(C)C`, the TGI (NCI-H226 lung) was greater than 100 µM, the TGI (EKVX NSCLC) was greater than 100 µM and the TGI (NCI-H23 lung) was greater than 100 µM. For the same compound, the TGI (UACC-62 melanoma) was greater than 100 µM, the TGI (NCI/ADR-RES ovarian) was greater than 100 µM and the TGI (SK-MEL-2 melanoma) was greater than 100 µM. It also gave a TGI (SNB-75 CNS) greater than 100 µM, a TGI (HL-60(TB) leukemia) greater than 100 µM and a TGI (LOX IMVI melanoma) greater than 100 µM. The TGI (SK-MEL-28 melanoma) was greater than 100 µM.

Work on `COc1cc(N(CCCl)CCCl)ccc1/C=N\NC(=O)c1cccnc1` yielded a GI50 (NCI-H226 lung) of 1.72 µM, a TGI (NCI-H226 lung) of 9.47 µM and a GI50 (EKVX NSCLC) of 31.2 µM. It also gave a TGI (EKVX NSCLC) of 87.5 µM, a GI50 (NCI-H23 lung) of 26.7 µM and a TGI (NCI-H23 lung) greater than 100 µM. The GI50 (UACC-62 melanoma) was 10.5 µM, the TGI (UACC-62 melanoma) was 29.5 µM and the GI50 (NCI/ADR-RES ovarian) was 24.9 µM. For the same compound, the TGI (NCI/ADR-RES ovarian) was greater than 100 µM, the GI50 (SK-MEL-2 melanoma) was 28 µM and the TGI (SK-MEL-2 melanoma) was 62 µM. It also gave a GI50 (SNB-75 CNS) of 37.1 µM, a TGI (SNB-75 CNS) greater than 100 µM and a GI50 (HL-60(TB) leukemia) of 11.4 µM. The TGI (HL-60(TB) leukemia) was 40.4 µM, the GI50 (LOX IMVI melanoma) was 32.2 µM and the TGI (LOX IMVI melanoma) was greater than 100 µM. The GI50 (SK-MEL-28 melanoma) was 48.4 µM and the TGI (SK-MEL-28 melanoma) was greater than 100 µM.

Work on `C=C(C)[C@H]1CC(=O)[C@@]2(C)C[C@H]3O[C@]3(C)CC/C=C(\C)CC[C@H]12` yielded a TGI (NCI-H226 lung) greater than 100 µM, a TGI (EKVX NSCLC) greater than 100 µM and a TGI (NCI-H23 lung) greater than 100 µM. It also gave a TGI (UACC-62 melanoma) of 74.1 µM, a TGI (NCI/ADR-RES ovarian) greater than 100 µM and a TGI (SK-MEL-2 melanoma) greater than 100 µM. It also gave a TGI (SNB-75 CNS) greater than 100 µM, a TGI (HL-60(TB) leukemia) of 75.2 µM and a TGI (LOX IMVI melanoma) greater than 100 µM. The TGI (SK-MEL-28 melanoma) was greater than 100 µM.

From PubChem BioAssay (NCI)
